Results as given in patent publication US20260250318A1, “COMPOSITIONS AND METHODS FOR CROSSING THE BLOOD BRAIN BARRIER” (VOYAGER THERAPEUTICS, INC., priority 2022, published 2026).

tested on: brain; assay: Matured TTM-001 and TTM-002 variants, NGS enrichment in mouse brain; format: in vivo, mice; details: NGS fold-enrichment, brain of mice, relative to AAV9 control

Sequence | Fold Enrichment relative to AAV9, Brain (Mouse) [fold]
KTINGGGSPHSKALNQQN | 69.884
KTINGSGSPHSKAQIPPT | 87.661
KTVNGSGSPHSKARDQQT | 132.137
KAINGSGSPHSKAQNLAT | 116.685

same assay, conditions: NGS fold-enrichment, mouse brain, relative to AAV9 control

Sequence | Fold Enrichment relative to AAV9, Brain (Mouse) [fold]
KTIKGQDSPHKIGQNQQT | 11.829
KTINGGGSPHSKALNQQN | 69.884
KTINGHDSPHKSNAWQQT | 15.788
KTINGHESPHKSGQNIQP | 14.042
KTVNGSGSPHSKARDQQT | 132.137
KVINGHDSPHKSGQTQQT (peptide inserted in AAV capsid) | 7.391
KAINGSGSPHSKAQNLAT | 116.685

same assay, conditions: mouse brain; relative to AAV9 control

Sequence | Fold Enrichment relative to AAV9, Brain (Mouse) [fold]
KTINGSGSPHSKVPNLQT | 50.474
KTVIGSGSPHSKSQNQQT | 69.121
EAINGSGSPHSKAQNQQT | 117.305
KTVNGSGSPHSKAQHLQT | 62.743
KTDVKSGSPHSKAQNQQT | 53.601
KTINGSGSPHSKAQAKGT | 104.917
KTCNASGSPHSKAQNQQT | 67.934

tested on: brains, heart, liver, muscle, and DRG of the NHPs; assay: Maturation of TTM-001 and TTM-002 capsids, NGS enrichment in NHP tissues; format: in vivo; details: NGS fold-enrichment of RNA, NHP brain, relative to AAV9 control
Method in brief: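 Variants carry mutations within and flanking the loop IV peptide insert: positions 450–466 were triplet-randomized, while positions 449–466 received low-frequency point mutations. The combined pool went into two NHPs, and each peptide was scored by NGS enrichment ratio against AAV9.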

Sequence | Fold Enrichment relative to AAV9, Brain (NHP) [fold]
KTIKGQDSPHKIGQNQQT | 110.357
KTINGGGSPHSKALNQQN | 77.822
KTINGHDSPHKSNAWQQT | 84.825
KTINGHESPHKSGQNIQP | 253.840
KTVNGSGSPHSKARDQQT | 124.789
KVINGHDSPHKSGQTQQT (peptide inserted in AAV capsid) | 91.665
KAINGSGSPHSKAQNLAT | 101.954

same assay, conditions: NGS fold-enrichment of matured AAV capsid variants; NHP brain, RNA; relative to AAV9 control

Sequence | Fold Enrichment relative to AAV9, Brain (NHP) [fold]
KTINGSGSPHSKVPNLQT | 57.046
KTVIGSGSPHSKSQNQQT | 54.603
EAINGSGSPHSKAQNQQT | 50.243
KTVNGSGSPHSKAQHLQT | 55.739
KTDVKSGSPHSKAQNQQT | 51.296
KTINGSGSPHSKAQAKGT | 51.727
KTCNASGSPHSKAQNQQT | 52.998

same assay, conditions: NGS fold-enrichment, DRG of NHPs, relative to AAV9 control

Sequence | Fold Enrichment relative to AAV9, DRG (NHP) [fold]
KTINGGGSPHSKALNQQN | 0.000
KTINGSGSPHSKAQIPPT | 0.000
KTVNGSGSPHSKARDQQT | 0.123
KAINGSGSPHSKAQNLAT | 0.000

same assay, conditions: NGS fold-enrichment, NHP DRG, relative to AAV9 control

Sequence | Fold Enrichment relative to AAV9, DRG (NHP) [fold]
KTIKGQDSPHKIGQNQQT | 0.000
KTINGGGSPHSKALNQQN | 0.000
KTINGHDSPHKSNAWQQT | 0.000
KTINGHESPHKSGQNIQP | 0.000
KTVNGSGSPHSKARDQQT | 0.123
KVINGHDSPHKSGQTQQT (peptide inserted in AAV capsid) | 0.000
KAINGSGSPHSKAQNLAT | 0.000

same assay, conditions: NGS fold-enrichment, NHP heart, relative to AAV9 control

Sequence | Fold Enrichment relative to AAV9, Heart (NHP) [fold]
KTIKGQDSPHKIGQNQQT | 0.103
KTINGGGSPHSKALNQQN | 0.131
KTINGHDSPHKSNAWQQT | 0.016
KTINGHESPHKSGQNIQP | 0.000
KTVNGSGSPHSKARDQQT | 0.039
KVINGHDSPHKSGQTQQT (peptide inserted in AAV capsid) | 0.055
KAINGSGSPHSKAQNLAT | 10.954

same assay, conditions: NGS fold-enrichment, NHP liver DNA, relative to AAV9 control

Sequence | Fold Enrichment relative to AAV9, Liver DNA (NHP) [fold]
KTIKGQDSPHKIGQNQQT | 0.135
KTINGGGSPHSKALNQQN | 0.274
KTINGHDSPHKSNAWQQT | 0.132
KTINGHESPHKSGQNIQP | 0.000
KTVNGSGSPHSKARDQQT | 0.454
KVINGHDSPHKSGQTQQT (peptide inserted in AAV capsid) | 0.000
KAINGSGSPHSKAQNLAT | 0.239

same assay, conditions: NGS fold-enrichment, NHP liver RNA, relative to AAV9 control

Sequence | Fold Enrichment relative to AAV9, Liver RNA (NHP) [fold]
KTIKGQDSPHKIGQNQQT | 0.166
KTINGGGSPHSKALNQQN | 0.000
KTINGHDSPHKSNAWQQT | 0.000
KTINGHESPHKSGQNIQP | 0.000
KTVNGSGSPHSKARDQQT | 0.569
KVINGHDSPHKSGQTQQT (peptide inserted in AAV capsid) | 0.311
KAINGSGSPHSKAQNLAT | 0.298

same assay, conditions: NGS fold-enrichment, NHP muscle, relative to AAV9 control

Sequence | Fold Enrichment relative to AAV9, Muscle (NHP) [fold]
KTIKGQDSPHKIGQNQQT | 0.058
KTINGGGSPHSKALNQQN | 0.000
KTINGHDSPHKSNAWQQT | 0.000
KTINGHESPHKSGQNIQP | 0.000
KTVNGSGSPHSKARDQQT | 0.312
KVINGHDSPHKSGQTQQT (peptide inserted in AAV capsid) | 1.526
KAINGSGSPHSKAQNLAT | 8.655

same assay, conditions: NGS fold-enrichment, RNA, brain of NHPs, relative to AAV9 control

Sequence | Fold Enrichment relative to AAV9, Brain (NHP) [fold]
KTINGGGSPHSKALNQQN | 77.822
KTINGSGSPHSKAQIPPT | 61.258
KTVNGSGSPHSKARDQQT | 124.789
KAINGSGSPHSKAQNLAT | 101.954

same assay, conditions: NGS fold-enrichment, heart of NHPs, relative to AAV9 control

Sequence | Fold Enrichment relative to AAV9, Heart (NHP) [fold]
KTINGGGSPHSKALNQQN | 0.131
KTINGSGSPHSKAQIPPT | 0.000
KTVNGSGSPHSKARDQQT | 0.039
KAINGSGSPHSKAQNLAT | 10.954

same assay, conditions: NGS fold-enrichment, liver DNA of NHPs, relative to AAV9 control

Sequence | Fold Enrichment relative to AAV9, Liver DNA (NHP) [fold]
KTINGGGSPHSKALNQQN | 0.274
KTINGSGSPHSKAQIPPT | 0.115
KTVNGSGSPHSKARDQQT | 0.454
KAINGSGSPHSKAQNLAT | 0.239

same assay, conditions: NGS fold-enrichment, liver RNA of NHPs, relative to AAV9 control

Sequence | Fold Enrichment relative to AAV9, Liver RNA (NHP) [fold]
KTINGGGSPHSKALNQQN | 0.000
KTINGSGSPHSKAQIPPT | 0.758
KTVNGSGSPHSKARDQQT | 0.569
KAINGSGSPHSKAQNLAT | 0.298

same assay, conditions: NGS fold-enrichment, muscle of NHPs, relative to AAV9 control

Sequence | Fold Enrichment relative to AAV9, Muscle (NHP) [fold]
KTINGGGSPHSKALNQQN | 0.000
KTINGSGSPHSKAQIPPT | 0.000
KTVNGSGSPHSKARDQQT | 0.312
KAINGSGSPHSKAQNLAT | 8.655

same assay, conditions: NHP DRG; relative to AAV9 control

Sequence | Fold Enrichment relative to AAV9, DRG (NHP) [fold]
KTINGSGSPHSKVPNLQT | 0.000
KTVIGSGSPHSKSQNQQT | 0.000
EAINGSGSPHSKAQNQQT | 0.629
KTVNGSGSPHSKAQHLQT | 0.091
KTDVKSGSPHSKAQNQQT | 0.000
KTINGSGSPHSKAQAKGT | 0.048
KTCNASGSPHSKAQNQQT | 0.000

same assay, conditions: NHP heart; relative to AAV9 control

Sequence | Fold Enrichment relative to AAV9, Heart (NHP) [fold]
KTINGSGSPHSKVPNLQT | 0.029
KTVIGSGSPHSKSQNQQT | 0.000
EAINGSGSPHSKAQNQQT | 0.094
KTVNGSGSPHSKAQHLQT | 0.036
KTDVKSGSPHSKAQNQQT | 0.000
KTINGSGSPHSKAQAKGT | 0.016
KTCNASGSPHSKAQNQQT | 0.011

same assay, conditions: NHP liver, DNA; relative to AAV9 control

Sequence | Fold Enrichment relative to AAV9, Liver DNA (NHP) [fold]
KTINGSGSPHSKVPNLQT | 0.082
KTVIGSGSPHSKSQNQQT | 0.106
EAINGSGSPHSKAQNQQT | 1.519
KTVNGSGSPHSKAQHLQT | 0.409
KTDVKSGSPHSKAQNQQT | 0.224
KTINGSGSPHSKAQAKGT | 0.525
KTCNASGSPHSKAQNQQT | 0.141

same assay, conditions: NHP liver, RNA; relative to AAV9 control

Sequence | Fold Enrichment relative to AAV9, Liver RNA (NHP) [fold]
KTINGSGSPHSKVPNLQT | 0.459
KTVIGSGSPHSKSQNQQT | 0.000
EAINGSGSPHSKAQNQQT | 0.057
KTVNGSGSPHSKAQHLQT | 0.062
KTDVKSGSPHSKAQNQQT | 0.515
KTINGSGSPHSKAQAKGT | 0.271
KTCNASGSPHSKAQNQQT | 0.897

same assay, conditions: NHP muscle; relative to AAV9 control

Sequence | Fold Enrichment relative to AAV9, Muscle (NHP) [fold]
KTINGSGSPHSKVPNLQT | 0.000
KTVIGSGSPHSKSQNQQT | 0.000
EAINGSGSPHSKAQNQQT | 0.000
KTVNGSGSPHSKAQHLQT | 0.000
KTDVKSGSPHSKAQNQQT | 0.000
KTINGSGSPHSKAQAKGT | 0.000
KTCNASGSPHSKAQNQQT | 0.000
